Where a SMILES comes first, the peptide text is derived from it.
How the values were obtained:
[1] = tested on: RG2, clone N32 glioblastoma in the right brain hemisphere; experiment: Intracranial pressure in rats with implanted RG2-N32 glioblastoma after nasal peptide; type: in vivo, Fisher 344 rats
Text: (§1) Adult male Fisher 344 rats were purchased from Charles River, Germany. The body weight at the time for the experiments was 230-250 g. The animals had water and pelleted feed ad libitum. Permission to the experiments was granted by the Regional Animal Experiments Ethical Committee, and national and EU rules were followed.
Cultured cells of the established glioma cell line RG2, clone N32, were stereotactically deposited in the right striatum of the brain of adult Fisher 344 rats (A. T. Aas, A Brun, C. Blennow, S. Strömblad and L. G. Salford (1995). The RG2 glioma model. J. Neuro-Oncology 23, 175-183; R. F. Barth and B. Kauer ([…]). Rat brain tumor models in experimental neuro-oncology: the C6, 9L, T9, RG2, F98, BT4C, RT-2 and CNS-1 gliomas. (J Neuro-Oncology 94, 299-312). After 18-22 days, a tumor, fulfilling established criteria for glioblastoma, was demonstrable in the right hemisphere, invading adjacent brain parenchyma (FIGS. 1, 2). […] FIG. 4 is showing the implantation of pressure sensors (Samba 3200; Samba Sensors A B, V. Frölunda, Sweden), one in each hemisphere. The intracranial pressure was measured to be in the range of 25-50 mm Hg (FIG. 4), that means strikingly elevated as compared to normally 5.3±2.1 mm Hg (H.-A. Hansson, M. Al-Olama, E. Jennische, K. Gatzinsky and S. Lange (2012). The peptide AF-16 and the AF protein counteract intracranial hypertension. Acta Neurochir. Suppl. 114, 377-382). Eventually, the intracranial pressure exceed 50-60 mm Hg, resulting in herniation of the brain, dislocations and impaired blood circulation, and death (FIG. 5).
The intracranial pressure was raised both in the tumor affected right side and in the contralateral left side, and the pressure dropped to the same extent in either brain hemisphere. Concomitantly, any demonstrable neurological impairment resolved.
Cultured cells of the established glioma cell line RG2, clone N32, were stereotactically deposited in the right striatum of the brain of adult Fisher 344 rats as described in
After 18-22 days a tumor, fulfilling established criteria for glioblastoma, was demonstrable in the right hemisphere, invading adjacent brain parenchyma.
A single dose of the peptide AF-6 (1-2 mg/kg body weight, dissolved in water) was instilled in the nose of a Fisher rat with an experimental glioblastoma tumor of the RG2-N32 origin at day 21 after implantation. About 15 min later the intracranial pressure started to dropped from 25-27 mm Hg to 17.7 mm Hg (FIG. 7).

[2] = tested on: GL261 glioma tumor in the right brain hemisphere; experiment: Intracranial / interstitial fluid pressure in mice with GL261 glioma after nasal peptide; type: in vivo, C57/BI/6 mice
Text: Adult C57/BI/6 mice were purchased from B & K, Sollentuna, Sweden. The body weight was 23 g and the animals had water and pelleted feed ad libitum. Permission to the experiments was granted by the Regional Animal Experiments Ethical Committee, and national and EU rules were followed.
The GL261 mouse glioma cell line was of C57/BI/6 origin and cultured in the Rausing laboratory, BMC, Lund University, according to an established protocol (K. Enell Smith, S. Fritzell, W. Badn, S. Eberstål, S. Janelidze, E. Visse, A. Darabi and P. Siesjö (2008). Cure of established GL261 mouse gliomas after combined immunotherapy with GM-CSF and IFNγ is mediated by both CD8^+ and CD4^+ T-cells. Int. J. Cancer 124, 630-637).
C57/BI/6 mice had each 5.000 GL261 glioma cells in 5 μL tissue culture medium stereo tactically deposited in deep brain structure in the right brain hemisphere. An expanding tumor was formed and had 22 days later a diameter of 3-5 mm.
The six AA peptide AF-6 (SEQ ID NO:2) (manufactured by solid phase synthesis by K J Ross-Petersen ApS, Copenhagen, with >95% purity and TFA as counter ion) was selected to be investigated for its ability to reduce the increased intracranial pressure (ICP) inevitably evolving at this stage of tumor development.
A mouse with a GL261 tumor in the right brain hemisphere was anaesthetized with isofluran and positioned in a stereotactic holder. […]

[3] = tested on: experimentally induced glioblastoma tumor cell nuclei; experiment: Uptake and binding of doxorubicin to tumor cell nuclei in mice with experimentally induced glioblastoma; type: in vivo; conditions: additional experiments
[4] = tested on: RG2, clone N32 glioblastoma tumor cell nuclei; experiment: Uptake of tracer doxorubicin into glioblastoma cell nuclei of rats (fluorescence microscopy); type: in vivo, Fisher 344 rats
Text: The aim of this experiment was to investigate if treatment with AF-16 increased the penetration of a marker through the tumor cells membrane and subsequent entrance and distribution in their nuclei. Doxorubicin was selected as a tracer for the reason that it is an established cytotoxic drug with a molecular mass of 543.52 g/mol, i.e. being considered as a fairly low molecular mass substance. Further, doxorubicin has a red color and when exposed to light emits a red fluorescence. Doxorubicin is strongly intercalating with the DNA in cell nuclei. This means that if a red fluorescence is observed in a cell nucleus the marker has been reached its target, the tumor cells. It is known that glioblastoma cells, in humans as in animals, prevent the entrance of chemotherapeutic substances into the tumor cells, and consequently no beneficial effects are attained. The most important barrier to the drug is prevailing at the surface of the tumor cells.
as §1
Cultured cells of the established glioma cell line RG2, clone N32, were stereotactically deposited in the right striatum of the brain of adult Fisher 344 rats as described in Example 1. After 20 days a tumor, fulfilling established criteria for being a glioblastoma, was present in the right brain hemisphere of either rat.
AF-16, 1 mg per kg body weight, dissolved in water and administrated as a single dose in a volume of 10 μL, was instilled in the nostrils of anaesthetized Fisher rats. […] Cryostat microtome sections were prepared of the brains, and examined with the aid of fluorescence microscope.
That means that very few doxorubicin molecules entered the tumor cells.

[5] = single nasal instillation 1-4 mg/kg body weight
[6] = AF-16 1 mg per kg body weight nasally, 1 h before i.v. doxorubicin 10 mg per kg, sacrificed 30 min later
[7] = AF-16 4 mg/kg bw nasally 1 h prior to i.v. doxorubicin 10 mg/kg bw, brains removed 30 min later

Molecule	side effects ([1]; single nasal dose 1-2 mg/kg body weight)	side effects ([2]; nasal 5 mg per kg body weight)	effect on raised intracranial pressure (summary statement) ([1]; animals with experimentally induced glioblastoma, tumor and contralateral hemisphere)	start of intracranial pressure decrease after nasal administration ([1]; nasal AF-16 4 mg/kg bw)	intracranial pressure attained ([1]; nasal AF-16 4 mg/kg bw, in half an hour, either brain hemisphere) [mm Hg]	duration of the beneficial effects on intracranial pressure [1, 5] [h]	time to reduction of the high intracranial pressure [1, 5] [min]	intracranial pressure after reduction (acceptable level) ([1]; single nasal instillation 1-4 mg/kg body weight in 10 μL water, baseline 25-50 mm Hg, both hemispheres) [mm Hg]	demonstrable neurological impairment ([1]; single nasal instillation 1-4 mg/kg body weight, concomitant with pressure drop)	effect on uptake and binding of doxorubicin to tumor cell nuclei [3]	effect on raised intracranial pressure (statement in words) ([2]; mice with experimentally induced glioblastoma)	doxorubicin staining of the tumor cell nuclei [4, 6]	proportion of tumor cells labeled by doxorubicin [4, 6]	frequency of doxorubicin-stained tumor cell nuclei vs vehicle pretreatment [4, 7]	intensity of doxorubicin staining of tumor cell nuclei vs vehicle pretreatment [4, 7]	effect on uptake of doxorubicin by tumor cell nuclei (summary statement) ([4]; animals with experimentally induced glioblastoma)
C[C@@H](O)[C@H](NC(=O)[C@H](CCCCN)NC(=O)[C@H](CO)NC(=O)[C@H](Cc1c[nH]cn1)NC(=O)[C@@H](N)CS)C(=O)N[C@@H](CCCNC(=N)N)C(=O)O [AF-6, CHSKTR] (H-CHSKTR-OH)	No side effects could be disclosed	No side effects were noticed	–	–	–	–	–	–	–	–	–	–	–	–	–	–
VCHSKTRSNPENNVGL (Variant (2)..(2) C may be replaced by S; Variant (3)..(3) H may be replaced by R or K; Variant (4)..(4) S may be replaced by L; Variant (6)..(6) T may be replaced by A) [AF-16, a peptide composed of the amino acids …, fragment of antisecretory factor protein]	–	–	lower the raised intracranial pressure	about 12 minutes	~20	4 to 6	15 to 30	≤ 20	resolved	facilitated the uptake and binding of doxorubicin to tumor cell nuclei	reduced the high intracranial pressure	strong red staining	a large proportion of these cells were labeled	increased	increased	efficiently improved the uptake
